# In article PMC5218480 (PLoS ONE, 2017):
# Tested on: MV-4-11 cells
# Assay: Gene expression microarray analysis (Affymetrix PrimeView) and GSEA
# Assay type: cell-based, human
# Set-up: RFU PODN (11730768_x_at) / Fold change /veh PODN (11730768_x_at) / RFU LINC00158 (11744669_a_at) / Fold change /veh LINC00158 (11744669_a_at) / RFU DUSP10 (11751237_a_at) / Fold change /veh DUSP10 (11751237_a_at) / RFU ID3 (11757404_x_at) / Fold change /veh ID3 (11757404_x_at) / RFU PLEKHG5 (11737974_s_at) / Fold change /veh PLEKHG5 (11737974_s_at) / RFU LRRC4B (11730491_at) / Fold change /veh LRRC4B (11730491_at) / RFU GIMAP4 (11747438_a_at) / Fold change /veh GIMAP4 (11747438_a_at) / RFU KRT8 (11758183_x_at) / Fold change /veh KRT8 (11758183_x_at) / RFU CNN1 (11734310_a_at) / Fold change /veh CNN1 (11734310_a_at) / RFU VPS37D (11726825_at) / Fold change /veh VPS37D (11726825_at) / RFU C10orf10 (11716522_x_at) / Fold change /veh C10orf10 (11716522_x_at) / RFU KIR2DL2 /// KIR2DL4 /// KIR2DL5A /// KIR2DL5B /// KIR2DS1 /// KIR2DS2 /// KIR2DS3 /// KIR2DS4 /// KIR3DL3 /// KIR3DL3 /// KIR3DS1 (11738374_at) / Fold change /veh KIR2DL2 /// KIR2DL4 /// KIR2DL5A /// KIR2DL5B /// KIR2DS1 /// KIR2DS2 /// KIR2DS3 /// KIR2DS4 /// KIR3DL3 /// KIR3DL3 /// KIR3DS1 (11738374_at) / RFU C1QL1 (11718748_at) / Fold change /veh C1QL1 (11718748_at) / RFU TMPRSS4 (11747572_a_at) / Fold change /veh TMPRSS4 (11747572_a_at) / RFU HAMP (11756126_x_at) / Fold change /veh HAMP (11756126_x_at) / RFU RNFT2 (11725882_a_at) / Fold change /veh RNFT2 (11725882_a_at) / RFU NR4A2 (11747474_a_at) / Fold change /veh NR4A2 (11747474_a_at) / RFU ABCC12 (11746883_a_at) / Fold change /veh ABCC12 (11746883_a_at) / RFU TMEM136 (11760407_x_at) / Fold change /veh TMEM136 (11760407_x_at) / RFU CLDN22 /// WWC2 (11732394_at) / Fold change /veh CLDN22 /// WWC2 (11732394_at) / RFU HLA-DPB1 (11760878_x_at) / Fold change /veh HLA-DPB1 (11760878_x_at) / RFU SPINT1 (11716480_a_at) / Fold change /veh SPINT1 (11716480_a_at) / RFU GAP43 (11754022_s_at) / Fold change /veh GAP43 (11754022_s_at) / RFU A4GNT (11735810_at) / Fold change /veh A4GNT (11735810_at) / RFU PRB3 (11715151_x_at) / Fold change /veh PRB3 (11715151_x_at) / RFU TUBB4B (11761932_at) / Fold change /veh TUBB4B (11761932_at) / RFU CAPN14 (11732068_a_at) / Fold change /veh CAPN14 (11732068_a_at) / RFU TMCC2 (11721928_a_at) / Fold change /veh TMCC2 (11721928_a_at) / RFU IRGQ (11745062_a_at) / Fold change /veh IRGQ (11745062_a_at) / RFU FAM174B (11720279_a_at) / Fold change /veh FAM174B (11720279_a_at) / RFU TMPRSS4 (11748680_a_at) / Fold change /veh TMPRSS4 (11748680_a_at) / RFU FAM212B (11763350_a_at) / Fold change /veh FAM212B (11763350_a_at) / RFU PLEKHG5 (11743358_a_at) / Fold change /veh PLEKHG5 (11743358_a_at) / RFU ZSCAN30 (11745921_a_at) / Fold change /veh ZSCAN30 (11745921_a_at) / RFU CMKLR1 (11741424_a_at) / Fold change /veh CMKLR1 (11741424_a_at) / RFU LOC101060620 /// MAPK8IP1 (11723275_at) / Fold change /veh LOC101060620 /// MAPK8IP1 (11723275_at) / RFU SPTSSB (11747773_x_at) / Fold change /veh SPTSSB (11747773_x_at) / RFU PRSS12 (11739890_at) / Fold change /veh PRSS12 (11739890_at) / RFU BIN1 (11741810_x_at) / Fold change /veh BIN1 (11741810_x_at) / RFU WNT11 (11732464_a_at) / Fold change /veh WNT11 (11732464_a_at) / RFU C10orf10 (11716521_a_at) / Fold change /veh C10orf10 (11716521_a_at) / RFU C5orf56 (11738089_at) / Fold change /veh C5orf56 (11738089_at) / RFU CYB561 (11721691_x_at) / Fold change /veh CYB561 (11721691_x_at) / RFU ANKRD19P (11752326_a_at) / Fold change /veh ANKRD19P (11752326_a_at) / RFU OR2T12 /// OR2T33 /// OR2T8 (11738714_s_at) / Fold change /veh OR2T12 /// OR2T33 /// OR2T8 (11738714_s_at) / RFU VCAN (11748164_a_at) / Fold change /veh VCAN (11748164_a_at) / RFU JSRP1 (11732532_at) / Fold change /veh JSRP1 (11732532_at) / RFU KRTAP10-11 (11738290_x_at) / Fold change /veh KRTAP10-11 (11738290_x_at) / RFU MYO3A (11730013_a_at) / Fold change /veh MYO3A (11730013_a_at) / RFU EBF3 (11725865_a_at) / Fold change /veh EBF3 (11725865_a_at) / RFU CAMK2N1 (11719241_x_at) / Fold change /veh CAMK2N1 (11719241_x_at) / RFU C5orf56 (11738088_a_at) / Fold change /veh C5orf56 (11738088_a_at) / RFU OLFML3 (11715873_a_at) / Fold change /veh OLFML3 (11715873_a_at) / RFU LOC100653217 /// NTM (11731650_a_at) / Fold change /veh LOC100653217 /// NTM (11731650_a_at) / RFU MAPK11 (11762145_a_at) / Fold change /veh MAPK11 (11762145_a_at) / RFU FIZ1 (11724087_x_at) / Fold change /veh FIZ1 (11724087_x_at) / RFU OASL (11726364_x_at) / Fold change /veh OASL (11726364_x_at) / RFU SOX15 (11748057_x_at) / Fold change /veh SOX15 (11748057_x_at) / RFU CD79A (11719716_a_at) / Fold change /veh CD79A (11719716_a_at) / RFU HIST1H1D (11736915_at) / Fold change /veh HIST1H1D (11736915_at) / RFU CASKIN2 (11723855_a_at) / Fold change /veh CASKIN2 (11723855_a_at) / RFU LOC730098 (11760151_x_at) / Fold change /veh LOC730098 (11760151_x_at) / RFU OR4N2 (11742367_at) / Fold change /veh OR4N2 (11742367_at) / RFU PRRT2 (11749266_a_at) / Fold change /veh PRRT2 (11749266_a_at) / RFU SNX32 (11753110_a_at) / Fold change /veh SNX32 (11753110_a_at) / RFU CDHR5 (11726645_a_at) / Fold change /veh CDHR5 (11726645_a_at) / RFU RCAN1 (11760418_a_at) / Fold change /veh RCAN1 (11760418_a_at) / RFU FAM167A (11723789_a_at) / Fold change /veh FAM167A (11723789_a_at) / RFU FAM26E (11764081_at) / Fold change /veh FAM26E (11764081_at) / RFU ISYNA1 (11749810_s_at) / Fold change /veh ISYNA1 (11749810_s_at) / RFU ACY1 (11761880_at) / Fold change /veh ACY1 (11761880_at) / RFU 11764098_at / Fold change /veh 11764098_at / RFU SAMD14 (11745864_x_at) / Fold change /veh SAMD14 (11745864_x_at) / RFU NPB (11741838_a_at) / Fold change /veh NPB (11741838_a_at) / RFU TMPRSS6 (11731388_a_at) / Fold change /veh TMPRSS6 (11731388_a_at) / RFU KRTAP10-2 (11738614_at) / Fold change /veh KRTAP10-2 (11738614_at) / RFU ARHGAP8 /// PRR5-ARHGAP8 (11727945_x_at) / Fold change /veh ARHGAP8 /// PRR5-ARHGAP8 (11727945_x_at) / RFU KRTAP5-7 /// NADSYN1 (11734609_at) / Fold change /veh KRTAP5-7 /// NADSYN1 (11734609_at) / RFU RASL12 (11751679_a_at) / Fold change /veh RASL12 (11751679_a_at) / RFU CDKN2B (11736163_a_at) / Fold change /veh CDKN2B (11736163_a_at) / RFU PRF1 (11729649_at) / Fold change /veh PRF1 (11729649_at) / RFU, ZNF638 /// ZNF638-IT1 / Fold change vs veh, ZNF638 /// ZNF638-IT1 / RFU, PANK3 / Fold change vs veh, PANK3 / RFU, SH3YL1 / Fold change vs veh, SH3YL1 / RFU, ZEB2 / Fold change vs veh, ZEB2 / RFU, NRIP1 / Fold change vs veh, NRIP1 / RFU, PTTG1IP / Fold change vs veh, PTTG1IP / RFU, CAPN2 / Fold change vs veh, CAPN2 / RFU, MED14 / Fold change vs veh, MED14 / RFU, SNORA58 / Fold change vs veh, SNORA58 / RFU, C1orf63 / Fold change vs veh, C1orf63 / RFU, LRRFIP1 / Fold change vs veh, LRRFIP1 / RFU, NDUFAF7 / Fold change vs veh, NDUFAF7 / RFU, SLC12A2 / Fold change vs veh, SLC12A2 / RFU, IBTK / Fold change vs veh, IBTK / RFU, ESF1 / Fold change vs veh, ESF1 / Fold change vs veh, TMEM50B / RFU, TAOK1 / Fold change vs veh, TAOK1 / RFU, ACBD3 / Fold change vs veh, ACBD3 / RFU, TMA16 / Fold change vs veh, TMA16 / RFU, RWDD3 / Fold change vs veh, RWDD3 / RFU, BCAT1 / Fold change vs veh, BCAT1 / RFU, EDEM3 / Fold change vs veh, EDEM3 / RFU, TMEM33 / Fold change vs veh, TMEM33 / RFU, WDR75 / Fold change vs veh, WDR75 / RFU, AHCTF1 / Fold change vs veh, AHCTF1 / RFU, TFRC / Fold change vs veh, TFRC / RFU, ZDHHC17 / Fold change vs veh, ZDHHC17 / RFU, NOM1 / Fold change vs veh, NOM1 / RFU, ARL8B / Fold change vs veh, ARL8B / RFU, ZBTB11 / Fold change vs veh, ZBTB11 / RFU, TAMM41 / Fold change vs veh, TAMM41 / RFU, KIAA1704 /// LOC100996395 / Fold change vs veh, KIAA1704 /// LOC100996395 / RFU, ING1 / Fold change vs veh, ING1 / RFU, TRMT61B / Fold change vs veh, TRMT61B / RFU, FUBP3 / Fold change vs veh, FUBP3 / RFU, TP53 / Fold change vs veh, TP53 / RFU, TNKS2 / Fold change vs veh, TNKS2 / RFU, ZFP14 / Fold change vs veh, ZFP14 / RFU, ACTR2 / Fold change vs veh, ACTR2 / RFU, PPP3R1 / Fold change vs veh, PPP3R1 / RFU, PIK3R1 / Fold change vs veh, PIK3R1 / RFU, HNRNPA1 / Fold change vs veh, HNRNPA1 / RFU, RNF170 / Fold change vs veh, RNF170 / RFU, ZNF28 / Fold change vs veh, ZNF28 / RFU, RNGTT / Fold change vs veh, RNGTT / RFU, OGT / Fold change vs veh, OGT / RFU, BRD1 / Fold change vs veh, BRD1 / RFU, MARS / Fold change vs veh, MARS / RFU, ZNF655 / Fold change vs veh, ZNF655 / RFU, FAHD1 / Fold change vs veh, FAHD1 / RFU, BDP1 / Fold change vs veh, BDP1 / RFU, LRRCC1 / Fold change vs veh, LRRCC1 / RFU, ARID1A / Fold change vs veh, ARID1A / RFU, ZNF146 / Fold change vs veh, ZNF146 / RFU, ZNF330 / Fold change vs veh, ZNF330 / RFU, GPN3 / Fold change vs veh, GPN3 / RFU, C9orf123 / Fold change vs veh, C9orf123 / RFU, N4BP2L2 / Fold change vs veh, N4BP2L2 / RFU, ARFIP1 / Fold change vs veh, ARFIP1 / RFU, FAM179B / Fold change vs veh, FAM179B / RFU, BCL10 / Fold change vs veh, BCL10 / RFU, UHRF1BP1L / Fold change vs veh, UHRF1BP1L / RFU, BET1 / Fold change vs veh, BET1 / RFU, CNOT2 / Fold change vs veh, CNOT2 / RFU, ZNF268 / Fold change vs veh, ZNF268 / Fold change vs veh, ZNF507 / RFU, DGCR2 / Fold change vs veh, DGCR2 / RFU, WDSUB1 / Fold change vs veh, WDSUB1 / Fold change vs veh, HSP90B1 /// MIR3652 / RFU, ADSS / Fold change vs veh, ADSS / RFU, GK / Fold change vs veh, GK / RFU, ZNF148 / Fold change vs veh, ZNF148 / RFU, TAF9 / Fold change vs veh, TAF9 / RFU, SLC1A5 / Fold change vs veh, SLC1A5 / RFU, SLMO2 / Fold change vs veh, SLMO2 / RFU, ABCC4 / Fold change vs veh, ABCC4 / RFU, LOC101060439 /// RAP1B / Fold change vs veh, LOC101060439 /// RAP1B / RFU, RFX7 / Fold change vs veh, RFX7 / RFU, GTPBP10 / Fold change vs veh, GTPBP10 / RFU, CNEP1R1 / Fold change vs veh, CNEP1R1 / RFU, BIVM-ERCC5 /// ERCC5 / Fold change vs veh, BIVM-ERCC5 /// ERCC5 / RFU, ILF3 / Fold change vs veh, ILF3 / RFU 11762660_at / Fold change /veh 11762660_at / RFU VCAN (11757783_s_at) / Fold change /veh VCAN (11757783_s_at) / RFU DDX43 (11728927_at) / Fold change /veh DDX43 (11728927_at) / RFU KRT8 (11758188_x_at) / Fold change /veh KRT8 (11758188_x_at) / RFU NKD1 (11759106_at) / Fold change /veh NKD1 (11759106_at) / RFU SRD5A1 (11742802_a_at) / Fold change /veh SRD5A1 (11742802_a_at) / RFU TPSAB1 /// TPSB2 (11721975_s_at) / Fold change /veh TPSAB1 /// TPSB2 (11721975_s_at) / RFU GSTM3 (11746129_a_at) / Fold change /veh GSTM3 (11746129_a_at) / RFU IL23R (11737362_x_at) / Fold change /veh IL23R (11737362_x_at) / RFU TMEM51 (11727254_a_at) / Fold change /veh TMEM51 (11727254_a_at) / RFU PIWIL2 (11732686_x_at) / Fold change /veh PIWIL2 (11732686_x_at) / RFU ORM1 (11744905_x_at) / Fold change /veh ORM1 (11744905_x_at) / RFU CCDC152 (11743942_at) / Fold change /veh CCDC152 (11743942_at) / RFU ECM1 (11717891_a_at) / Fold change /veh ECM1 (11717891_a_at) / RFU IL23R (11748794_a_at) / Fold change /veh IL23R (11748794_a_at) / RFU TNFAIP8L3 (11732012_x_at) / Fold change /veh TNFAIP8L3 (11732012_x_at) / RFU MBOAT4 (11741988_at) / Fold change /veh MBOAT4 (11741988_at) / RFU 11764193_at / Fold change /veh 11764193_at / RFU TMEM53 (11763286_at) / Fold change /veh TMEM53 (11763286_at) / RFU MAGEB2 (11727129_at) / Fold change /veh MAGEB2 (11727129_at) / RFU TMEM200A (11744735_a_at) / Fold change /veh TMEM200A (11744735_a_at) / RFU CCDC152 (11751479_a_at) / Fold change /veh CCDC152 (11751479_a_at) / RFU FAM211A (11726209_a_at) / Fold change /veh FAM211A (11726209_a_at) / RFU RGS16 (11746705_a_at) / Fold change /veh RGS16 (11746705_a_at) / RFU VCAN (11755009_s_at) / Fold change /veh VCAN (11755009_s_at) / RFU RHOB (11743442_s_at) / Fold change /veh RHOB (11743442_s_at) / RFU RGS16 (11720943_a_at) / Fold change /veh RGS16 (11720943_a_at) / RFU RGS16 (11720944_at) / Fold change /veh RGS16 (11720944_at) / RFU, VPS4B / Fold change vs veh, VPS4B / RFU, CREB1 / Fold change vs veh, CREB1 / RFU, DNAJC13 / Fold change vs veh, DNAJC13 / RFU, GNAQ / Fold change vs veh, GNAQ / RFU, CDK5R1 / Fold change vs veh, CDK5R1 / RFU, ZRANB3 / Fold change vs veh, ZRANB3 / RFU, CUL4A / Fold change vs veh, CUL4A / RFU, CCNY / Fold change vs veh, CCNY / RFU, UFL1 / Fold change vs veh, UFL1 / RFU, COG3 / Fold change vs veh, COG3 / RFU, DIAPH2 / Fold change vs veh, DIAPH2 / RFU, SKA2 / Fold change vs veh, SKA2 / RFU, AFF3 / Fold change vs veh, AFF3 / RFU, LMF1 / Fold change vs veh, LMF1 / RFU, IPO11 / Fold change vs veh, IPO11 / RFU, DFFB / Fold change vs veh, DFFB / RFU, FOXP1 / Fold change vs veh, FOXP1 / RFU, CARD8 / Fold change vs veh, CARD8 / RFU, STRN3 / Fold change vs veh, STRN3 / RFU, ADK / Fold change vs veh, ADK / RFU, RASSF2 / Fold change vs veh, RASSF2 / RFU, WIPF1 / Fold change vs veh, WIPF1 / RFU, LARP1B / Fold change vs veh, LARP1B / RFU, RASA1 / Fold change vs veh, RASA1 / RFU, RB1 / Fold change vs veh, RB1 / RFU, PPFIA1 / Fold change vs veh, PPFIA1 / RFU, MAT2A / Fold change vs veh, MAT2A / RFU, CCT5 / Fold change vs veh, CCT5 / RFU, WDR92 / Fold change vs veh, WDR92 / RFU, CUX1 / Fold change vs veh, CUX1 / RFU, TTC7A / Fold change vs veh, TTC7A / RFU, TMEM135 / Fold change vs veh, TMEM135 / RFU, DEPTOR / Fold change vs veh, DEPTOR / RFU, CPM / Fold change vs veh, CPM / RFU, DNAJB6 / Fold change vs veh, DNAJB6 / RFU, CACNA2D3 / Fold change vs veh, CACNA2D3 / RFU, DTX4 / Fold change vs veh, DTX4 / RFU, TFCP2 / Fold change vs veh, TFCP2 / RFU, GMCL1 /// GMCL1P1 / Fold change vs veh, GMCL1 /// GMCL1P1 / RFU, AEBP2 / Fold change vs veh, AEBP2 / RFU, SNHG1 /// SNORD22 /// SNORD25 /// SNORD26 /// SNORD27 /// SNORD28 /// SNORD29 /// SNORD31 / Fold change vs veh, SNHG1 /// SNORD22 /// SNORD25 /// SNORD26 /// SNORD27 /// SNORD28 /// SNORD29 /// SNORD31 / Fold change (Aza/veh), C12orf56 (ProbeSet 11735607_a_at) / Fold change (ACY-1035/veh), C12orf56 (ProbeSet 11735607_a_at) / Fold change (Aza/veh), FGFR1OP (ProbeSet 11751329_s_at) / Fold change (ACY-1035/veh), FGFR1OP (ProbeSet 11751329_s_at) / Fold change (Aza/veh), VPS36 (ProbeSet 11739960_a_at) / Fold change (ACY-1035/veh), VPS36 (ProbeSet 11739960_a_at) / RFU SYPL1 (11715823_x_at) / Fold change /veh SYPL1 (11715823_x_at) / RFU IGFBP7 (11715501_s_at) / Fold change /veh IGFBP7 (11715501_s_at) / RFU REEP3 (11722064_at) / Fold change /veh REEP3 (11722064_at) / RFU IGLL1 (11728026_x_at) / Fold change /veh IGLL1 (11728026_x_at): dose or concentration left out as unconfirmed
# Conditions: ProbeSet 11721559_s_at; LIST B
smiles,measurement,value
Nc1ncn([C@@H]2O[C@H](CO)[C@@H](O)[C@H]2O)c(=O)n1 [azacitidine],"Fold change vs veh, ZNF638 /// ZNF638-IT1",0.91
